“Also recorded” adds a separate entry of the source.
Columns and labels:
RSF cells = test: Effect of P-gp inhibitors on intracellular distribution of Compound 1; format: cell-based, human
[1] = test system: HCT116 human colon cancer cells; test: Intracellular distribution of fluorescent-labeled polyamides by fluorescence microscopy; format: cell-based; conditions: HCT116, overnight at 37° C.
Description: Previously established low passage number human colon cancer HCT116 cells were cultured as monolayers and maintained at 37° C. in a humidified incubator with 5% CO2 in buffered medium consisting of RPMI 1640 (GIBCO, Life Technologies, Rockville, Md.) supplemented with 2 mM L-glutamine, 10% fetal bovine serum (GIBCO), 100 Units/ml Penicillin-Streptomycin and 25 μg/ml Gentamicin. Previously established low passage number human rheumatoid synovial fibroblasts (RSFs) were cultured in DMEM (GIBCO 11995-040) supplemented with 15% FBS, 1% glutamine, and 50 µg/ml Gentamycin.
HCT116 cells or RSF cells (8×10^5) were plated on 25-mm round glass coverslips in 30-mm wells and incubated for 24 hr to allow cells to adhere. […]
Live wet mounted cells were examined and photographed using an Olympus AX70 Microscope equipped with fluorescence optics and a Sony 3CCD color video camera. DAPI was detected using a bandpass 405±20 nm excitation filter, a 420 nm dichroic beam splitter, and a ≧450 emission filter (DAPI filter set). BODIPY and fluorescein conjugated polyamides were selectively detected using a bandpass 485±11 nm excitation filter, a 505 nm dichroic beam splitter, and a 530±15 nm emission filter (fluorescein filter set). Organelle-specific probes were detected using a 546+/−5 nm excitation filter, a 570 nm dichroic beam splitter and a 590 nm longpass emission filter (Rhodamine filter set). […]

Compound: COc1ccc(CCN(C)CCCC(C#N)(c2ccc(OC)c(OC)c2)C(C)C)cc1OC (stereo not shown) [verapamil]
- effect on intracellular distribution of Compound 1 (RSF cells): dramatic reduction in cytoplasmic fluorescence accompanied by a re-distribution of Compound 1 to the nucleus
- location of Compound 1 green fluorescence in presence of inhibitor (RSF cells): observed in the nuclei in the presence of verapamil

Compound: Im-Im-Py-Py-γ-Py-Py-Py-Py-β-Ta-FITC [Compound 2]
- fluorescent-filled vesicles [1]: absent
- nuclear fluorescence (nuclear localization) [1]: nuclei are brightly stained; also recorded: observed in the nuclei of the cells
